Positions of bridges follow the written chain, without caps; N, C: chain ends. Residues, ends and D or L forms follow the SMILES beside them.
Biological target: Thrombospondin-1 (Homo sapiens, UniProt P07996)
Assay: TSP1 inhibitory activity
Description: As referred to herein, the TSP1 inhibitory activity refers to the activity to inhibit one or more effects of TSP1, including angiostatic effect. The TSP1 inhibitory activity is measured by a cell adhesion inhibition assay using human TSP1 and vascular endothelial cells as described hereinbelow in the Examples section. In this assay, when the 50% inhibitory concentration (IC5O) of a test substance is 200 nM or less, the test substance is determined to have TSP1 inhibitory activity.

Chain of Thrombospondin-1 (P07996 whole entry): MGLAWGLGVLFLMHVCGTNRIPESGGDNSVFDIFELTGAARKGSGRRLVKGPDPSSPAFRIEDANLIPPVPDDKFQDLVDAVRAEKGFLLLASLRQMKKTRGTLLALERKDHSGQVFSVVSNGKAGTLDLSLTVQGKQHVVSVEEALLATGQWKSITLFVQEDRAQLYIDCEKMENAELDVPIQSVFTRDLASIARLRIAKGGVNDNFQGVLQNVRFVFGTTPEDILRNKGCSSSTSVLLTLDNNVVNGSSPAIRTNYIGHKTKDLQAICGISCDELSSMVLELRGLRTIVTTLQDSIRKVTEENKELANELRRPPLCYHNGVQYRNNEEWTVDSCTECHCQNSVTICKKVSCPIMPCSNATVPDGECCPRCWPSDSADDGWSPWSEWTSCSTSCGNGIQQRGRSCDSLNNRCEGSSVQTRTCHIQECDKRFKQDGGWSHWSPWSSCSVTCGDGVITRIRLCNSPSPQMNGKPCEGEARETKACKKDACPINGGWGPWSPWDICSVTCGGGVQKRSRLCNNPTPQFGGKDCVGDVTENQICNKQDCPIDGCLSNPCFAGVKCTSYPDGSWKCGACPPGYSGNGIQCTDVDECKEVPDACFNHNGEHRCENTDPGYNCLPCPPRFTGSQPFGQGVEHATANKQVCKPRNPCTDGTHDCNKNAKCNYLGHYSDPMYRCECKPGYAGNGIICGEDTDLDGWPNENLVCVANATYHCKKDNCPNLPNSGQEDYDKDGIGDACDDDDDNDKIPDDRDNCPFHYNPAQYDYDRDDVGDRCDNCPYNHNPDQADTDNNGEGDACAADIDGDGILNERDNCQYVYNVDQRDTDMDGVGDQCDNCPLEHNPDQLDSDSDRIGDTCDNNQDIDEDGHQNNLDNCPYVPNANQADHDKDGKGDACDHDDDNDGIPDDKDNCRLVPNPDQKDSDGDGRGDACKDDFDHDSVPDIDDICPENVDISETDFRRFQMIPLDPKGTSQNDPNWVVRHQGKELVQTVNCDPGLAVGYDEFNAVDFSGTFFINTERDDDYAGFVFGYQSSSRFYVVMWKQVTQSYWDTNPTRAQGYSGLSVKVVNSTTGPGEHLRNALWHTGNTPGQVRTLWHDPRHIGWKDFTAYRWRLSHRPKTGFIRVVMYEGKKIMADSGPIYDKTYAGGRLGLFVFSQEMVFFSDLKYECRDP

CC[C@H](C)[C@@H]1NC(=O)[C@H](Cc2ccccc2)NC(=O)CSC[C@@H](C(N)=O)NC(=O)[C@H](C(C)C)NC(=O)[C@H](Cc2c[nH]c3ccccc23)NC(=O)[C@H](CCCNC(=N)N)NC(=O)[C@H](C(C)C)NC(=O)[C@H](Cc2c[nH]c3ccccc23)NC(=O)[C@H](CC(N)=O)NC(=O)[C@H](CCCCN)NC(=O)CNC(=O)[C@H](CO)NC1=O [US11149066, Compound 10] ({CH2CO}-FISGKNWVRWVC-NH2; thioether N-12)
Kd: 91 pM

— BindingDB's records for patent US11149066 (Daiichi Sankyo, 2021)
